Assay results published in patent publication US12318361B2, “Methods for treating cardiovascular diseases” (Olatec Therapeutics LLC, priority 2017, dated 2025).

Legend:
[1] = tested on: caspase-1; assay: Western blot for caspase-1 (p45 and p10) in J774A.1 cells after LPS/ATP stimulation; type: cell-based, murine
Procedure: J774A.1 murine macrophages cells were stimulated with 1 μg/ml lipopolysaccharide (LPS) for 4 hours and either nigericin (NIG, 10 μM) or ATP (5 mM) was added for 1 hour. OLT1177™ was added to the cells either 30 minutes following LPS stimulation or at the same time as ATP.
A subunit of activated caspase-1 (p10) was reduced in J774A.1 cells in the presence of dapansutrile (OLT).

[2] = tested on: IL-1β, IL-6 and IL-1α in hearts of mice; assay: Cytokine levels in heart homogenates after in vivo lipopolysaccharide challenge; parameters: species or system C57BL/6J mice; settings: 200 mg/kg IP every 12 h for 5 doses; LPS 5 mg/kg IP, 2 h; vs saline, P<0.05
Procedure: C57BL/6J mice male mice, 22-26 grams (Jackson Laboratories, Bar Harbor, ME) were treated with 200 mg/kg dapansutrile (OLT1177™) in 200 μl of saline or the matching volume of vehicle (saline) intraperitoneally (IP) every 12 hours for 5 doses. One hour after the last dose or saline, the animals were injected IP with 200 μl of lipopolysaccharide (LPS, E. coli, 055: B5, Sigma-Aldrich) at 5 mg/kg and sacrificed after 2 h. Cytokines were measured in hearts homogenates. Tissue homogenates were lysed using RIPA buffer (Sigma-Aldrich) containing a mixture of protease inhibitors (Roche, Indianapolis, IN), centrifuged at 13,000g for 20 minutes at 4° C., and the supernatants were assayed for cytokine levels of IL-1β, IL-6 and IL-1α. The cytokine concentrations were corrected for total protein content.
The dose of LPS that was used in the study covers ischemic inflammation, vascular inflammation and cell-mediated inflammation.

[3] = biological target: T1, NLRP3 inflammasome (association of caspase-1 with NLRP3) (Homo sapiens, UniProt Q96P20); assay: FRET analysis of NLRP3 inflammasome assembly in human monocyte-derived macrophages after LPS/ATP; type: cell-based; settings: 50 μM, HMDM from 4 donors, P<0.01
T1 construct: endogenous in cells; host or cells: human monocyte-derived macrophages (HMDM) from 4 healthy donors
T1 sequence (Q96P20 whole entry): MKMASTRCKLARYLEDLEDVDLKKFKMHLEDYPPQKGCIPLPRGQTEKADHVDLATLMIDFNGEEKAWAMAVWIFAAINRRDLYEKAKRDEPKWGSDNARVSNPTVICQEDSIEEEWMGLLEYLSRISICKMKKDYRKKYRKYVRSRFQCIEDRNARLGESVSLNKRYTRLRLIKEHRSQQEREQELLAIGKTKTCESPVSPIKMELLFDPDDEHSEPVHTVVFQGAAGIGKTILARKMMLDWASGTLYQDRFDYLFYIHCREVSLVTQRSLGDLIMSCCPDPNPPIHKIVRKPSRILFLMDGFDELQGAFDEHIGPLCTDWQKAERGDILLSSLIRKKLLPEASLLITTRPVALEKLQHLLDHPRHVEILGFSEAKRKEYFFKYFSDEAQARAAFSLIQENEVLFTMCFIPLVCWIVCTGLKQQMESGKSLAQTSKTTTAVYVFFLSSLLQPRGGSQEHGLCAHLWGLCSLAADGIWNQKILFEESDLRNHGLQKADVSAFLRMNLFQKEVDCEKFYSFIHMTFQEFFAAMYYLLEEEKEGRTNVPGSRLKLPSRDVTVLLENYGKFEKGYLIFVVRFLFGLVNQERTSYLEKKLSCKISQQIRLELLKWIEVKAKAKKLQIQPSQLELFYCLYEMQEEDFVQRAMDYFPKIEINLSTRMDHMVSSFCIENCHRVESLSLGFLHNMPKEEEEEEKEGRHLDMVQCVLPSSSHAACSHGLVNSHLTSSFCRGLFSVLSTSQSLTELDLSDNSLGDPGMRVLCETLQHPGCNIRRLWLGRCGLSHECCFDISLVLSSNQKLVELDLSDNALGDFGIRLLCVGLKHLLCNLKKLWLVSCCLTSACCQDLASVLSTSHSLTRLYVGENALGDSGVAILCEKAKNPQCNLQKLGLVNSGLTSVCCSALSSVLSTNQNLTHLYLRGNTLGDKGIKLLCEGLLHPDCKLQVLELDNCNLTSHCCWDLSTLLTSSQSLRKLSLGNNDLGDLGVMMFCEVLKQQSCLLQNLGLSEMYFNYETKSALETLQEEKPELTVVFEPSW
Procedure: Human monocyte-derived macrophages (HMDM) were cultured on glass slides for 5 days with GM-CSF, stimulated for 4 hours with […] LPS and then treated with 5 mM ATP for one hour. Dapansutrile (OLT1177™, 50 μM) was added to the cells either 30 minutes following LPS stimulation or at the same time as ATP.
After washing with PBS, the cells were fixed and permeabilized with 70-30 acetone-methanol as described by Gamboni et al, Physiol Rep., 2 (7), 2014. Briefly, cells were placed in a humidified slide chamber blocked for 1 hour in 10% normal donkey serum (Jackson Immunologicals, Westgrove, PA). After removal of the donkey serum, the primary antibodies to human NLRP3 (Cryo-2, AdipoGen San Diego, CA), human caspase-1 (sc-515, Santa Cruz Biotechnology) or isomolar, species-specific anti-IgG (R&D Systems) were added and kept overnight at 4° C. […] FRET images were acquired using a Marianas Imaging Station using a Zeiss 639 Plan-Apochromat objective (1.4 N/A), a Sutter Xenon light source and a Cooke SensiCam as described by Gamboni et al. The corrected FRET was calculated as FRET=Transfer-Fd/D donor-Fa/Aa acceptor as reported by Berney et al, Biophys J., 84:3992-4010, 2003. […]

CS(=O)(=O)CCC#N [OLT1177™, 3-methanesulfonyl-propionitrile]
reduced: subunit of activated caspase-1 (p10), Western blot [1] | cytokine level of IL-1α in hearts [2] | cytokine level of IL-1β in hearts [2] | cytokine level of IL-6 in hearts [2] | association of caspase-1 with NLRP3 (FRET intensity) [3]
